This assay has as its system E. coli. Kind of assay: Molecular phenotypic antimicrobial susceptibility test with direct PCR (no extraction DNA purification step). In kind it is cell-based, Escherichia coli. The note with it: specimen with <10,000 cells/mL, direct PCR after 16 hours of incubation. As for the experimental part: Detection of Molecular Phenotypic Antimicrobial Susceptibility. Disclosed herein are the methods for the detection of phenotypic antimicrobial susceptibility via molecular methods. The present invention describes how a specimen 100 with a known microbial load is incubated and then exposed to a panel of antimicrobial agents to determine sensitivity (prevention of growth) or resistance (allowance of growth) to the specific antimicrobial agents tested utilizing molecular methods.
Sample Collection. Specimens 100 are collected from patients using sterile collection processes that are employed in routine clinical care. Specimens are transported to the testing facility in boric acid preservative. Specimens 100 are subsequently divided into a first sample 104 and a second sample 108.
Preparation of the Specimens for Testing. The specimens 100 are put through a pathogen identification process using PCR technology (e.g., using the first sample 104). The process for pathogen isolation includes steps of harvesting the pathogen (e.g., via centrifugation), isolating pathogen DNA via a DNA isolation and/or purification kit, and performing PCR on the pathogen DNA via PCR components (e.g., primers, enzymes, buffers) as would be known to the skilled artisan. Simultaneously, an additional aliquot of the same specimen (e.g., the second sample 108) is placed with liquid culture media and incubated for 4-6 hours. This aliquot is used for antimicrobial susceptibility testing if indicated based on the pathogen detection results. After pathogen identification is completed and if more than 10,000 cells/mL of bacteria (e.g., eligible bacteria) are detected in the source specimen, the second sample 108 then enters the antimicrobial susceptibility phase of testing. Specimens 100 with lower pathogen loads could also be utilized in the antibiotic susceptibility phase of testing with or without a longer incubation period.
Preparation of Antimicrobial Susceptibility Testing Plates. Antimicrobial solutions are prepared at known concentrations. The specific antimicrobials and their concentrations are selected based on the pathogen of interest and the described antimicrobial resistance breakpoints for that specimen pathogen and antimicrobial combination. These antimicrobials have been selected based on those commonly utilized by healthcare providers in routine clinical care for the specific type of suspected infection. The number and types of antimicrobials utilized can be customized based on the infection source, pathogen detected, patient-specific factors such as allergies or other health conditions (e.g., chronic kidney disease or concurrent medication use), or healthcare provider preferences such as antimicrobial availability or cost.
The antimicrobial solutions are prepared in liquid culture media (such as Muller Hinton Broth) to achieve the desired antimicrobial concentration and are then stored at −80° C. until use. For a given specimen, each antimicrobial is tested at a single or multiple antimicrobial concentration(s) which is its established breakpoints for sensitivity. The antimicrobial solutions are prepared and plated out for each specific pathogen. This allows ease of use on the day of testing after defrosting the plate 112. Table 1, which illustrates the results of molecular phenotypic antimicrobial susceptibility testing when more than one organism is present in the source specimen, provides an example of an antimicrobial plate 112 prepared for this purpose. Of note, control wells containing only culture media are present on all plates 112. This allows for evaluation of pathogen load when no antimicrobial is present.
Specimen Exposure to Antimicrobial Agents. The 1 mL aliquot of the specimen 100 previously mixed with culture media and incubated is obtained. Using optical density measurements as a guide, the specimen 100 is diluted to 0.5 McFarland. […]

Structures are written as SMILES.

For the compound `C[C@H]1c2cccc(O)c2C(=O)C2=C(O)[C@]3(O)C(=O)C(C(N)=O)=C(O)[C@@H](N(C)C)[C@@H]3[C@@H](O)[C@@H]21` [Doxycycline], the “Molecular Antimicrobial Susceptibility Result” value is recorded as “Sensitive (Antimicrobial wells with pathogen load detected below the control wells (typically >2 cycle thresholds later) may be reported as Sensitive)” (E. coli #1 - WDCM 00090 - 6.2×E3) and “Sensitive (Antimicrobial wells with pathogen load detected below the control wells (typically >2 cycle thresholds later) may be reported as Sensitive)” (E. coli #2 - WDCM 00090 - 6.2×E3). Also, the “Ct at Sensitive Breakpoint” value by setting is: (E. coli #1 - WDCM 00090 - 6.2×E3, Ct at control 13.787) 25.83; (E. coli #2 - WDCM 00090 - 6.2×E3, Ct at control 13.46) 27.02.

The values above are taken from patent US20250290117A1, “MOLECULAR PHENOTYPIC ANTIMICROBIAL SUSCEPTIBILITY TESTING” (priority 2024, published 2025).
